Assay results as given in ChEMBL document CHEMBL3044838, “Phytotoxic activity of quinones and resorcinolic lipid derivatives” (J Agric Food Chem, 2010).
Active and inactive are the calls of the source. No cut-off for these calls is given here.

How the values were obtained:
Assay type in all cases: functional, organism-based
Agrostis stolonifera [1] = assay: Phytotoxic activity against Agrostis stolonifera var. Penncross seedlings assessed as growth inhibition at 0.03 mM
Lactuca sativa [2] = assay: Phytotoxic activity against Lactuca sativa cv. Iceberg A (lettuce) seedlings assessed as growth inhibition at 0.01 mM
Agrostis stolonifera [3] = assay: Phytotoxic activity against Agrostis stolonifera var. Penncross seedlings assessed as growth inhibition at 0.01 mM
Agrostis stolonifera [4] = assay: Phytotoxic activity against Agrostis stolonifera var. Penncross seedlings assessed as growth inhibition at 0.1 mM
Lactuca sativa [5] = assay: Phytotoxic activity against Lactuca sativa cv. Iceberg A (lettuce) seedlings assessed as growth inhibition at 0.1 mM
Lactuca sativa [6] = assay: Phytotoxic activity against Lactuca sativa cv. Iceberg A (lettuce) seedlings assessed as growth inhibition at 0.03 mM
Agrostis stolonifera [7] = assay: Phytotoxic activity against Agrostis stolonifera var. Penncross seedlings assessed as growth inhibition at 0.3 mM
Lactuca sativa [8] = assay: Phytotoxic activity against Lactuca sativa cv. Iceberg A (lettuce) seedlings assessed as growth inhibition at 0.3 mM
Agrostis stolonifera [9] = assay: Phytotoxic activity against Agrostis stolonifera var. Penncross seedlings assessed as growth inhibition at 1 mM
Lactuca sativa [10] = assay: Phytotoxic activity against Lactuca sativa cv. Iceberg A (lettuce) seedlings assessed as growth inhibition at 1 mM

Structure (SMILES)	growth inhibition (GI) (Agrostis stolonifera [1])	growth inhibition (GI) (Lactuca sativa [2])	growth inhibition (GI) (Agrostis stolonifera [3])	growth inhibition (GI) (Agrostis stolonifera [4])	growth inhibition (GI) (Lactuca sativa [5])	growth inhibition (GI) (Lactuca sativa [6])	growth inhibition (GI) (Agrostis stolonifera [7])	growth inhibition (GI) (Lactuca sativa [8])	growth inhibition (GI) (Agrostis stolonifera [9])	growth inhibition (GI) (Lactuca sativa [10])
CCCCCCCCCCC1=C(OC)C(=O)C=C(OC)C1=O	inactive	inactive	inactive	inactive	inactive	inactive	inactive	inactive		
CCCCCC1=C(OC)C(=O)C=C(OC)C1=O	inactive	inactive	inactive		inactive	inactive				
CCCCCCCCCCCCCCC1=C(O)C(=O)C=C(OC)C1=O	inactive	inactive	inactive	inactive	inactive	inactive	inactive		inactive	
CCCCCC1=C(O)C(=O)C=C(OC)C1=O	inactive	inactive	inactive		inactive	inactive				Active
C=CC/C=C\C/C=C\CCCCCCCC1=C(O)C(=O)C=C(OC)C1=O	inactive	inactive	inactive	inactive		inactive	inactive		inactive	
